ChEMBL document CHEMBL1153064, “From lead to preclinical candidate: optimization of beta-homophenylalanine based inhibitors of dipeptidyl peptidase IV” (Bioorg Med Chem Lett, 2009)

Test: in vitro
Settings: human

Compound	half-life at 0.75 h, 3 µM (microsomes) [min]	half-life at 0.75 h, 3 µM (liver microsomes) [min]
N[C@@H](CC(=O)N1CCC[C@H]1COCC1CC1)Cc1cc(F)c(F)cc1F	30	–
N[C@@H](CC(=O)N1CCC[C@H]1CNC(=O)CC(F)(F)F)Cc1cc(F)c(F)cc1F	–	> 120
N[C@@H](CC(=O)N1CCC[C@H]1CNC(=O)C1CCCC1)Cc1cc(F)c(F)cc1F	–	71
N[C@@H](CC(=O)N1CCC[C@H]1CNC(=O)C1CCC1)Cc1cc(F)c(F)cc1F	–	38
